From ChEMBL document CHEMBL3526157, “Unique metabolic pathway of [(14)C]lenvatinib after oral administration to male cynomolgus monkey” (Drug Metab Dispos, 2012)

What was measured:
[1] = Drug metabolism in Sprague-Dawley rat liver S9 fraction assessed as 5-(3-(6-carbamoyl-7-methoxyquinolin-4-ylthio)-1-(carboxymethylamino)-1-oxopropan-2-ylamino)-[…]-5-oxopentanoic acid level at 50 uM up to 60 mins by HPLC analysis in presence of GSH and absence of NADPH; conditions: s9, 1 h
[2] = Drug metabolism in cynomolgus monkey liver S9 fraction assessed as decrease of parent compound level at 50 uM up to 120 mins by HPLC analysis in presence of GSH and NADPH; assay type: ADME, subcellular, Macaca fascicularis; conditions: s9, 2 h, TDE = time-dependent effect
[3] = Drug metabolism in human liver S9 fraction assessed as 5-(3-(6-carbamoyl-7-methoxyquinolin-4-ylthio)-1-(carboxymethylamino)-1-oxopropan-2-ylamino)-[…]-5-oxopentanoic acid level at 50 uM up to 120 mins by HPLC analysis in presence of GSH and absence of NADPH; assay type: ADME, tissue-based; conditions: s9, 2 h
[4] = Drug metabolism in potassium phosphate buffer at pH 7.4 assessed as decrease of parent compound at 50 uM in presence of NAC; assay type: physicochemical; conditions: pH 7.4, 50 µM
[5] = Drug metabolism in Sprague-Dawley rat liver S9 fraction assessed as 5-(3-(6-carbamoyl-7-methoxyquinolin-4-ylthio)-1-(carboxymethylamino)-1-oxopropan-2-ylamino)-[…]-5-oxopentanoic acid level at 50 uM up to 60 mins by HPLC analysis in presence of GSH and NADPH; conditions: s9, 1 h
[6] = Drug metabolism in cynomolgus monkey liver S9 fraction assessed as 5-(3-(6-carbamoyl-7-methoxyquinolin-4-ylthio)-1-(carboxymethylamino)-1-oxopropan-2-ylamino)-[…]-5-oxopentanoic acid level at 50 uM up to 120 mins by HPLC analysis in presence of GSH and NADPH; assay type: ADME, subcellular, Macaca fascicularis; conditions: s9, 2 h
[7] = Drug metabolism in potassium phosphate buffer at pH 7.4 assessed as decrease of parent compound at 50 uM in presence of cysteine; assay type: physicochemical; conditions: pH 7.4, 50 µM
[8] = Drug metabolism in human liver S9 fraction assessed as decrease of parent compound level at 50 uM up to 120 mins by HPLC analysis in presence of GSH and absence of NADPH; assay type: ADME, tissue-based; conditions: s9, 2 h, TDE = time-dependent effect
[9] = Drug metabolism in cynomolgus monkey liver S9 fraction assessed as 5-(3-(6-carbamoyl-7-methoxyquinolin-4-ylthio)-1-(carboxymethylamino)-1-oxopropan-2-ylamino)-[…]-5-oxopentanoic acid level at 50 uM up to 120 mins by HPLC analysis in presence of GSH and absence of NADPH; assay type: ADME, Macaca fascicularis; conditions: s9, 2 h
[10] = Drug metabolism in Sprague-Dawley rat liver S9 fraction assessed as decrease of parent compound level at 50 uM up to 60 mins by HPLC analysis in presence of GSH and absence of NADPH; conditions: s9, 1 h, TDE = time-dependent effect
[11] = Drug metabolism in Sprague-Dawley rat liver S9 fraction assessed as decrease of parent compound level at 50 uM up to 120 mins by HPLC analysis in presence of GSH and NADPH; assay type: ADME, subcellular; conditions: s9, 2 h, TDE = time-dependent effect
[12] = Drug metabolism in potassium phosphate buffer at pH 7.4 assessed as decrease of parent compound at 50 uM in presence of GSH; assay type: physicochemical; conditions: pH 7.4, 50 µM
Cynomolgus monkey [13] = assay: Drug retention time in cynomolgus monkey treated with 30 mg/kg, po of [14C]lenvatinib administered on day 1, 2 and 4 by radio-LC/MS analysis; assay type: ADME, organism-based, Macaca fascicularis; design: dose 30 mg/kg, route oral; conditions: in vivo
[14] = Drug metabolism in human liver S9 fraction assessed as 5-(3-(6-carbamoyl-7-methoxyquinolin-4-ylthio)-1-(carboxymethylamino)-1-oxopropan-2-ylamino)-[…]-5-oxopentanoic acid level at 50 uM up to 120 mins by HPLC analysis in presence of GSH and NADPH; assay type: ADME, subcellular; conditions: s9, 2 h
[15] = Drug metabolism in human liver S9 fraction assessed as decrease of parent compound level at 50 uM up to 120 mins by HPLC analysis in presence of GSH and NADPH; assay type: ADME, subcellular; conditions: s9, 2 h, TDE = time-dependent effect
[16] = Drug metabolism in cynomolgus monkey liver S9 fraction assessed as decrease of parent compound level at 50 uM up to 120 mins by HPLC analysis in presence of GSH and absence of NADPH; assay type: ADME, tissue-based, Macaca fascicularis; conditions: s9, 2 h, TDE = time-dependent effect
[17] = Drug metabolism in cynomolgus monkey liver S9 fraction treated with 50 uM of lenvatinib up to 120 mins by HPLC analysis in presence of GSH and absence of NADPH; assay type: ADME, Macaca fascicularis; conditions: s9, 2 h
[18] = Drug metabolism in Sprague-Dawley rat liver S9 fraction treated with 50 uM of lenvatinib up to 60 mins by HPLC analysis in presence of GSH and NADPH; conditions: s9, 1 h
[19] = Drug metabolism in cynomolgus monkey liver S9 fraction treated with 50 uM of lenvatinib up to 120 mins by HPLC analysis in presence of GSH and NADPH; assay type: ADME, subcellular, Macaca fascicularis; conditions: s9, 2 h
[20] = Drug metabolism in Sprague-Dawley rat liver S9 fraction treated with 50 uM of lenvatinib up to 60 mins by HPLC analysis in presence of GSH and absence of NADPH; conditions: s9, 1 h
[21] = Drug metabolism in human liver S9 fraction treated with 50 uM of lenvatinib up to 120 mins by HPLC analysis in presence of GSH and NADPH; assay type: ADME, subcellular; conditions: s9, 2 h
Cynomolgus monkey [22] = assay: Drug metabolism in cynomolgus monkey treated with 30 mg/kg, po of [14C]lenvatinib administered on day 1, 2 and 4 by radio-LC/MS analysis; assay type: ADME, organism-based, Macaca fascicularis; design: dose 30 mg/kg, route oral; conditions: in vivo
[23] = Drug metabolism in human liver S9 fraction treated with 50 uM of lenvatinib up to 120 mins by HPLC analysis in presence of GSH and absence of NADPH; assay type: ADME; conditions: s9, 2 h
[24] = Drug metabolism in cynomolgus monkey assessed as 2-(6-carbamoyl-7-methoxyquinolin-4-ylamino)-3-(6-carbamoyl-7-methoxyquinolin-4-ylthio)propanoic acid metabolite level in bile at 30 mg/kg, po administered on day 1, 2 and 4 by radio-LC/MS analysis; assay type: ADME, organism-based, Macaca fascicularis; design: dose 30 mg/kg, route oral; conditions: in vivo
Cynomolgus monkey [25] = assay: Drug metabolism in cynomolgus monkey assessed as 2-(6-carbamoyl-7-methoxyquinolin-4-ylamino)-3-((2-(6-carbamoyl-7-methoxyquinolin-4-ylamino)-3-(carboxymethylamino)-3-oxopropyl)disulfanyl)propanoic acid formation at 30 mg/kg, po administered on day 1, 2 and 4 by radio-LC/MS analysis; assay type: ADME, organism-based, Macaca fascicularis; design: dose 30 mg/kg, route oral; conditions: in vivo
Cynomolgus monkey [26] = assay: Drug metabolism in cynomolgus monkey assessed as parent compound formation at 30 mg/kg, po administered on day 1, 2 and 4 by radio-LC/MS analysis; assay type: ADME, organism-based, Macaca fascicularis; design: dose 30 mg/kg, route oral; conditions: in vivo
Cynomolgus monkey [27] = assay: Drug metabolism in cynomolgus monkey assessed as 2-(6-carbamoyl-7-methoxyquinolin-4-ylthio)acetic acid formation at 30 mg/kg, po administered on day 1, 2 and 4 by radio-LC/MS analysis; assay type: ADME, organism-based, Macaca fascicularis; design: dose 30 mg/kg, route oral; conditions: in vivo
[28] = Drug metabolism in cynomolgus monkey assessed as 2-(6-carbamoyl-7-methoxyquinolin-4-ylamino)-3-mercaptopropanoic acid metabolite level in bile at 30 mg/kg, po administered on day 1, 2 and 4 by radio-LC/MS analysis; assay type: ADME, organism-based, Macaca fascicularis; design: dose 30 mg/kg, route oral; conditions: in vivo
[29] = Drug metabolism in cynomolgus monkey assessed as 2-(6-carbamoyl-7-methoxyquinolin-4-ylamino)-3-(6-carbamoyl-7-methoxyquinolin-4-ylthio)propanoic acid metabolite level in liver at 30 mg/kg, po administered on day 1, 2 and 4 by radio-LC/MS analysis; assay type: ADME, organism-based, Macaca fascicularis; design: dose 30 mg/kg, route oral; conditions: in vivo
[30] = Drug metabolism in cynomolgus monkey assessed as parent compound level in bile at 30 mg/kg, po administered on day 1, 2 and 4 by radio-LC/MS analysis; assay type: ADME, organism-based, Macaca fascicularis; design: dose 30 mg/kg, route oral; conditions: in vivo
[31] = Drug metabolism in cynomolgus monkey assessed as 2-(6-carbamoyl-7-methoxyquinolin-4-ylamino)-3-mercaptopropanoic acid metabolite level in liver at 30 mg/kg, po administered on day 1, 2 and 4 by radio-LC/MS analysis; assay type: ADME, organism-based, Macaca fascicularis; design: dose 30 mg/kg, route oral; conditions: in vivo
Cynomolgus monkey [32] = assay: Drug metabolism in cynomolgus monkey assessed as 2-(6-carbamoyl-7-methoxyquinolin-4-ylamino)-3-mercaptopropanoic acid formation at 30 mg/kg, po administered on day 1, 2 and 4 by radio-LC/MS analysis; assay type: ADME, organism-based, Macaca fascicularis; design: dose 30 mg/kg, route oral; conditions: in vivo
[33] = Drug metabolism in cynomolgus monkey assessed as 5-(3-(6-carbamoyl-7-methoxyquinolin-4-ylthio)-1-(carboxymethylamino)-1-oxopropan-2-ylamino)-[…]-5-oxopentanoic acid metabolite level in liver at 30 mg/kg, po administered on day 1, 2 and 4 by radio-LC/MS analysis; assay type: ADME, organism-based, Macaca fascicularis; design: dose 30 mg/kg, route oral; conditions: in vivo
Cynomolgus monkey [34] = assay: Drug metabolism in cynomolgus monkey assessed as 3,3'-disulfanediylbis(2-(6-carbamoyl-7-methoxyquinolin-4-ylamino)propanoic acid) formation at 30 mg/kg, po administered on day 1, 2 and 4 by radio-LC/MS analysis; assay type: ADME, organism-based, Macaca fascicularis; design: dose 30 mg/kg, route oral; conditions: in vivo
[35] = Drug excretion in cynomolgus monkey feces assessed as unchanged level of drug at 30 mg/kg, po administered on day 1, 2 and 4 by radio-LC/MS analysis; assay type: ADME, organism-based, Macaca fascicularis; design: dose 30 mg/kg, route oral; conditions: read-out: Drug excretion
[36] = Drug metabolism in cynomolgus monkey assessed as 3,3'-disulfanediylbis(2-(6-carbamoyl-7-methoxyquinolin-4-ylamino)propanoic acid) metabolite level in urine at 30 mg/kg, po administered on day 1, 2 and 4 by radio-LC/MS analysis; assay type: ADME, organism-based, Macaca fascicularis; design: dose 30 mg/kg, route oral; conditions: in vivo
[37] = Drug metabolism in cynomolgus monkey assessed as parent compound level in liver at 30 mg/kg, po administered on day 1, 2 and 4 by radio-LC/MS analysis; assay type: ADME, organism-based, Macaca fascicularis; design: dose 30 mg/kg, route oral; conditions: in vivo
[38] = Drug metabolism in cynomolgus monkey assessed as 3,3'-disulfanediylbis(2-(6-carbamoyl-7-methoxyquinolin-4-ylamino)propanoic acid) metabolite level in bile at 30 mg/kg, po administered on day 1, 2 and 4 by radio-LC/MS analysis; assay type: ADME, organism-based, Macaca fascicularis; design: dose 30 mg/kg, route oral; conditions: in vivo
[39] = Drug metabolism in cynomolgus monkey assessed as 2-(6-carbamoyl-7-methoxyquinolin-4-ylamino)-3-(6-carbamoyl-7-methoxyquinolin-4-ylthio)propanoic acid metabolite level in urine at 30 mg/kg, po administered on day 1, 2 and 4 by radio-LC/MS analysis; assay type: ADME, organism-based, Macaca fascicularis; design: dose 30 mg/kg, route oral; conditions: in vivo
Plasma = assay: Drug metabolism in cynomolgus monkey assessed as parent compound level in plasma at 30 mg/kg, po administered on day 1, 2 and 4 by radio-LC/MS analysis; assay type: ADME, organism-based, Macaca fascicularis; design: dose 30 mg/kg, route oral; conditions: in vivo
[40] = Drug metabolism in cynomolgus monkey assessed as 2-(6-carbamoyl-7-methoxyquinolin-4-ylamino)-3-((2-(6-carbamoyl-7-methoxyquinolin-4-ylamino)-3-(carboxymethylamino)-3-oxopropyl)disulfanyl)propanoic acid metabolite level in urine at 30 mg/kg, po administered on day 1, 2 and 4 by radio-LC/MS analysis; assay type: ADME, organism-based, Macaca fascicularis; design: dose 30 mg/kg, route oral; conditions: in vivo
Cynomolgus monkey [41] = assay: Drug metabolism in cynomolgus monkey assessed as 5-(3-(6-carbamoyl-7-methoxyquinolin-4-ylthio)-1-(carboxymethylamino)-1-oxopropan-2-ylamino)-[…]-5-oxopentanoic acid formation at 30 mg/kg, po administered on day 1, 2 and 4 by radio-LC/MS analysis; assay type: ADME, organism-based, Macaca fascicularis; design: dose 30 mg/kg, route oral; conditions: in vivo
[42] = Drug metabolism in cynomolgus monkey assessed as 2-(6-carbamoyl-7-methoxyquinolin-4-ylthio)acetic acid metabolite level in urine at 30 mg/kg, po administered on day 1, 2 and 4 by radio-LC/MS analysis; assay type: ADME, organism-based, Macaca fascicularis; design: dose 30 mg/kg, route oral; conditions: in vivo
Cynomolgus monkey [43] = assay: Drug metabolism in cynomolgus monkey assessed as 2-(6-carbamoyl-7-methoxyquinolin-4-ylamino)-3-(6-carbamoyl-7-methoxyquinolin-4-ylthio)propanoic acid formation at 30 mg/kg, po administered on day 1, 2 and 4 by radio-LC/MS analysis; assay type: ADME, organism-based, Macaca fascicularis; design: dose 30 mg/kg, route oral; conditions: in vivo

COc1cc2nccc(Oc3ccc(NC(=O)NC4CC4)c(Cl)c3)c2cc1C(N)=O.CS(=O)(=O)O [LENVATINIB MESYLATE]
tde: Drug metabolism [2] | Drug metabolism [8] | Drug metabolism [10] | Drug metabolism [11] | Drug metabolism [15] | Drug metabolism [16]
46.4 min: Retention_time (Cynomolgus monkey [13])
metabolite_detected: Drug metabolism [1] | Drug metabolism [3] | Drug metabolism [4] | Drug metabolism [5] | Drug metabolism [6] | Drug metabolism [7] | Drug metabolism [9] | Drug metabolism [12] | Drug metabolism [14]

COc1cc2nccc(SC[C@H](NC(=O)CC[C@H](N)C(=O)O)C(=O)NCC(=O)O)c2cc1C(N)=O
13.1 min: Retention_time (Cynomolgus monkey [13])
metabolite_detected: Drug metabolism [17] | Drug metabolism [18] | Drug metabolism [19] | Drug metabolism [20] | Drug metabolism [21] | Drug metabolism (Cynomolgus monkey [22]) | Drug metabolism [23]

COc1cc2n[14cH]cc(Oc3ccc(NC(=O)NC4CC4)c(Cl)c3)c2cc1C(N)=O.CS(=O)(=O)O
metabolite_detected: Drug metabolism [24] | Drug metabolism (Cynomolgus monkey [25]) | Drug metabolism (Cynomolgus monkey [26]) | Drug metabolism (Cynomolgus monkey [27]) | Drug metabolism [28] | Drug metabolism [29] | Drug metabolism [30] | Drug metabolism [31] | Drug metabolism (Cynomolgus monkey [32]) | Drug metabolism [33] | Drug metabolism (Cynomolgus monkey [34]) | Drug metabolism [36] | Drug metabolism [37] | Drug metabolism [38] | Drug metabolism [39] | Drug metabolism (Plasma) | Drug metabolism [40] | Drug metabolism (Cynomolgus monkey [41]) | Drug metabolism [42] | Drug metabolism (Cynomolgus monkey [43])
51%: dose excreted [35]

COc1cc2nccc(N[C@@H](CSSC[C@H](Nc3ccnc4cc(OC)c(C(N)=O)cc34)C(=O)NCC(=O)O)C(=O)O)c2cc1C(N)=O
14.1 min: Retention_time (Cynomolgus monkey [13])
metabolite_detected: Drug metabolism (Cynomolgus monkey [22])
